According to patent US6399612B1, “Heteroaryl butyric acids and their derivatives as inhibitors of matrix metalloproteinases” (Warner-Lambert Company, priority 1997, dated 2002):

How the values were obtained:
Format in all cases: biochemical
Settings in all cases: thiopeptolide substrate Ac-Pro-Leu-Gly-thioester-Leu-Leu-Gly-OEt
[1] = molecular target: T1, MMP-3CD (stromelysin-1 catalytic domain) (Homo sapiens, UniProt P08254); experiment: MMP-3CD inhibition, thiopeptolide substrate
T1 construct: Experiments were carried out with the catalytic domains of the proteinases
Protocol: (§1) Experiments were carried out with the catalytic domains of the proteinases. […] IC50 values were determined using a thiopeptolide substrate, Ac-Pro-Leu-Gly-thioester-Leu-Leu-Gly-OEt (Ye Q.-Z., Johnson L. L., Hupe D. J., and Baragi V., “Purification and Characterization of the Human Stromelysin Catalytic Domain Expressed in Escherichia coli”, Biochemistry, 1992;31:11231-11235).

[2] = molecular target: T2, MMP-13CD (collagenase-3 catalytic domain) (Homo sapiens, UniProt P45452); experiment: MMP-13CD inhibition, thiopeptolide substrate
T2 construct: Experiments were carried out with the catalytic domains of the proteinases
Protocol: as §1

[3] = molecular target: MMP-2CD (gelatinase A catalytic domain) (Homo sapiens, UniProt P08253); experiment: MMP-2CD inhibition, thiopeptolide substrate
Protocol: as §1

T1 sequence (P08254 100-272 limits assumed): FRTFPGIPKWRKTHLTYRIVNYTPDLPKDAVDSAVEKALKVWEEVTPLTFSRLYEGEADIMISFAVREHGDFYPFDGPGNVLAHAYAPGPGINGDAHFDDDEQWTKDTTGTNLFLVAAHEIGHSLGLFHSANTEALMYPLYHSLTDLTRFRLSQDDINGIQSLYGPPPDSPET

O=C(O)CCC(=NO)c1ccc(-n2cccn2)cc1 [Example 1, 4-Hydroxyimino-4-(4-pyrazol-1-yl-phenyl)butyric Acid]
IC50 [1]: 13000 nM | IC50 [2]: 10600 nM | IC50 [3]: 1250 nM

O=C(O)CCC(=O)c1ccc(-c2ccc(Cl)s2)cc1 [Example 2, 4-[4-(5-Chloro-thiophen-2-yl)-phenyl]-4-oxo-butyric Acid]
IC50 [1]: 298 nM | IC50 [2]: 1100 nM | IC50 [3]: 63.9 nM

O=C(O)CCC(=NO)c1ccc(-c2ccc(Cl)s2)cc1 [Example 3]
IC50 [1]: 105 nM | IC50 [2]: 120 nM | IC50 [3]: 14 nM
